Data on 3 compounds can be found in patent publication US20070092442A1, “F-18-fluorinated phosphonium cation imaging agents and methods of synthesis” (priority 2005, published 2007).

For data set [1], the system named is C6 cells. The experiment in a line: C6 cell uptake of phosphonium cations determined by MALDI-TOF-MS. It is filed as cell-based, rat. The conditions noted are these: 5 μM; for rank of uptake in C6 cells among the compounds tested: 25° C. The procedure:
A rat glioma C6 cell line was grown in Dulbecco's modified Eagle medium (DMEM, Invitrogen Life Technologies, Carlsbad, Calif.) high glucose (containing KCl 5.3 mmol/L and NaCl 110.34 mmol/L) plus 10% fetal bovine serum (FBS), and 1% penicillin-streptomycin at 37° C. in 5% CO2/95% air. After trypsinization, cells were washed with 0.01 M phosphate-buffered saline (PBS, pH=7.4) twice and suspended at 10×10^6 cells /mL in low K^+ Hepes buffer (135 mM NaCl/5 mM KCl/1.8 mM CaCl2/0.8 mM MgSO4/50 mM Hepes [4-(-2-hydroxyethyl)-1-piperazineethanesulfonic acid]/5.5 mM dextrose, pH 7.4). 50 μL (0.5×10^6) of C6 cells were incubated with 10 μL 100 μM stock phosphonium salts solution ([…], the structures of these phosphonium cations are shown in FIG. 1) and 140 μL Hepes buffer from 10 to 90 min at room temperature. The cells were centrifuged (250×g) for three minutes and washed twice with cold PBS buffer at specified times. Cell pellets were then lysed with 150 μL cold spectral grade water, following by freezing in dry ice. Right before the MALDI-TOF-MS analysis, the frozen cell solution was thawed and centrifuged at 12000×g for 5 min. 90 μL cell lysate and 10 μL 10 μM internal standard MeTPP were mixed together, and 1 μL solution was subjected to MALDI-TOF-MS analysis. Samples were prepared and analyzed in triplicate.

Data set [2] concerns C6 cells. The experiment in a line: Mitochondrial membrane potential (MMP) dependent uptake of FTPP in C6 cells (CCCP, valinomycin, high K+ Hepes buffer). It is filed as cell-based, rat. The method, then: The extent of MMP and cell membrane potential-dependent cellular uptake of FTPP was further assessed using the C6 cells treated with CCCP, valinomycin, and high K^+ Hepes buffer (5 mM NaCl/135 mM KCl/1.8 mM CaCl2/0.8 mM MgSO4/50 mM Hepes/5.5 mM dextrose, pH 7.4). Carbonylcyanide-m-chlorophenylhydrazone (CCCP), a known protonphore that selectively abolishes the MMP,^26 was dissolved in dimethyl sulfoxide (DMSO) and diluted to desired concentration with low K^+ Hepes buffer. K^+-ionophore valinomycin was dissolved in ethanol and also diluted with low K^+ buffer. Final concentrations of ethanol and DMSO were below 0.1%. Varying concentrations of CCCP and valinomycin were added to the 0.5×10^6 cells in low K^+ Hepes buffer 30 min prior to the start of the experiment. After 1 hr of incubation with 5 μM FTPP, the eppendorf vials were centrifuged, cell lysate were prepared as described above, and the cell uptakes of FTPP were determined using MALDI-TOF-MS. Five sets of 0.5×10^6 cells were also suspended in high K^+ Hepes buffer for 60 min, then exposed to 5 μM FTPP for 10-90 min in high K^+ Hepes buffer. Cell uptake of FTPP was measured by MALDI-TOF-MS. The viability and the integrity of the cells after treatment with inhibitors and high K^+ buffer were examined using Trypan blue.

The nature of data set [3]: MicroPET imaging, biodistribution and pharmacokinetic in normal nude mice. It is filed as in vivo, mouse. To be noted: for heart uptake / liver uptake: tail vein, microPET ROI. The method, then: PET imaging of normal nude mice was performed on a microPET R4 rodent model scanner (Concorde Microsystems Inc, Knoxville, Tenn.). The mice were injected with about 10-20 μCi of [^18F]FTPP via the tail vein. At 30 min, 1 hr, 2 hr, and 4 hr post injection, the mice were anesthetized with 2% isoflurane and placed in the prone position and near the center of the filed of view of microPET. The 10-min static scans were obtained, and the images were reconstructed by a two-dimensional ordered subsets expectation maximum (OSEM) algorithm. Regions of interest (ROIs) were then drawn over the […] on decay-corrected whole-body coronal images. The counts per pixel per minute were obtained from the ROI and converted to counts per milliliter per minute by using a calibration constant. By assuming a tissue density of 1 g/mL, the ROIs were converted to counts/g/min. An image ROI-derived percentage ID per gram of tissue (% ID/g) was then determined by dividing counts per gram per minute with injected dose (ID).

With `Fc1ccc([P+](c2ccccc2)(c2ccccc2)c2ccccc2)cc1` [FTPP, 4-Fluorophenyltriphenyl phosphonium], in the data set with C6 cells [1], the “rank of uptake in C6 cells among the compounds tested” value came to 2nd place. Also, in the data set with C6 cells [1] (glioma C6 cells in vitro, MALDI-TOF-MS), the “uptake in C6 cells as percentage of the TPP uptake” value came out at 80%. Besides, the “FTPP uptake (normalized) in presence of valinomycin” value in the data set on C6 cells [2] (10 μM valinomycin, 5 μM FTPP, 1 hr, low K+ Hepes buffer) was “about 72.8±3.6%”. In addition, the “FTPP uptake (normalized) in presence of CCCP” value in the data set on C6 cells [2] (50 μM CCCP, 5 μM FTPP, 1 hr, low K+ Hepes buffer) is recorded as “about 27.3±2.3%”. Besides, the “effect of CCCP or valinomycin on uptake” value in the data set with C6 cells [2] (CCCP 0.1-50 μM, valinomycin 0.1-10 μM, low K+ Hepes buffer) was “inhibited by CCCP or valinomycin in dose-dependent manners”. In addition, the “decrease in uptake on depolarization of the plasma membrane (high K+ vs low K+ buffer)” value in the data set with C6 cells [2] (high K+ Hepes buffer, 90 min exposure time, 5 μM FTPP) worked out at 3.5 fold.
On to `[Br-].c1ccc([P+](c2ccccc2)(c2ccccc2)c2ccccc2)cc1` [TPP, tetraphenylphosphonium bromide, reference compound], for which the “rank of uptake in C6 cells among the compounds tested” value in the data set with C6 cells [1] is on record as “highest uptake”.
On to `[18F]c1ccc([P+](c2ccccc2)(c2ccccc2)c2ccccc2)cc1` [[^18F]FTPP, (4-[^18F]fluorophenyl)triphenylphosphonium], for which, in data set [3] (30 minutes pi), the heart uptake was 5.59±0.93 % ID/g and the liver uptake amounted to 7.39±0.36 % ID/g. Also, in data set [3] (4 h pi), the heart uptake is given as 3.89±0.29 % ID/g and the liver uptake came out at 2.79±0.59 % ID/g. For the same compound, in data set [3] (female nude mouse, 15 μCi), the “localization in microPET images” value is “clearly localized in the heart” and the “route of clearance” value is reported as “mainly cleared out through hepatobiliary system”.
